Data reported in patent publication US11566049B2, “Cyclic peptides and uses thereof” (LATERAL IP PTY LTD, priority 2018, dated 2023).
Values joined by “and” are separate entries in the source; they are usually repeats but may differ in a detail not shown here. Equal values may be shown once. “Also recorded” adds a separate entry of the source. Positions of bridges follow the written chain, without caps; N, C: chain ends. No end group written: not given here.

Experiments:
[1] = system: dorsal horn neurons; assay: whole-cell recording of dorsal horn neurons in spinal cord slices from Chung models (Example 3); format: cell-based, rat; conditions: 5 μM; for Input Resistance, mean in presence of peptide / Membrane Potential, mean in presence of peptide: all cells; for Normalised Input Resistance / Normalised Input Resistance ΔIR: control = 100; for effect on membrane potential and activity of dorsal horn neurons: ipsilateral to injury; for Normalised Membrane Potential / Normalised Membrane Potential ΔVm: rest = 100; for ΔIR, change in neuronal input resistance: vs control, positive in table = reduction; for ΔVm, change in membrane potential: vs rest, positive in table = hyperpolarisation
Experimental: Spinal nerve ligation (Chung model; as described in Examples 1 and 2, above) was performed by a single tight ligation on the L5 spinal nerve. […] This animal model is often used as the “gold standard” for neuropathic pain.
(§1) Adult male Sprague-Dawley rats, weighing 220-250 g (aged 7 weeks and older) at the time of surgery, were used in this study. They were housed in groups of 4, in an air-conditioned room, on a 12-hour light/dark cycle with food and water available ad libitum. All experiments were performed in accordance with the U. K. Animals (Scientific Procedures) Act (1986).
(§2) The animals were housed in groups of 4 in an air-conditioned room on a 12-hour light/dark cycle. Food and water were available ad libitum. Animals were allowed to acclimatise to the environment for experiments for three days by leaving them on a raised metal mesh for at least 40 min. The baseline paw withdrawal threshold (PWT) was examined using a series of graduated von Frey hairs (see below) for 3 consecutive days before surgery and re-assessed on the 6th to 8th day after surgery and on the 12th to 14th day-after surgery before drag dosing.
(§3) Each rat was anaesthetized with 5% isoflurane mixed with oxygen (2 L per min) followed by an intramuscular (i.m.) injection of ketamine 90 mg/kg plus xylazine 10 mg/kg. The back was shaved and sterilized with povidone-iodine. The animal was placed in a prone position and a para-medial incision was made on the skin covering the L4-6 level. The L5 spinal nerve was carefully isolated and tightly ligated with 6/0 silk suture. The wound was then closed in layers after a complete haemostasis. A single dose of antibiotics (Amoxipen, 15 mg/rat, i.p.) was routinely given for prevention of infection after surgery. The animals were placed in a temperature-controlled recovery chamber until fully awake before being returned to their home cages.
The peptides of SEQ ID NO:27 (also referred to herein as LAT9993 Loop) and SEQ ID NO:28 (also referred to herein as LAT9993S or LAT9993 LoopS), were solubilised in distilled water and made up as concentrated stocks and stored frozen until the day of experiment when they were diluted to the required test concentrations in artificial cerebrospinal fluid (aCSF). The aCSF comprised (mM): NaCl, 127; KCl, 1.9; KH2PO4, 1.2; CaCl2, 2.4; MgCl2, 1.3; NaHCO3, 26; D-glucose, 10; equilibrated with 95% O2-5% CO2.
(§4) Ten to fourteen days after surgery, animals were placed in individual Perspex boxes on a raised metal mesh for at least 40 minutes prior to PWT testing. Starting with the filament of lowest force (1 g), each filament was applied perpendicularly to the centre of the ventral surface of the paw until slightly bent for 6 seconds. If the animal withdrew or lifted its paw upon stimulation, a von Frey hair with force immediately lower than that tested was subsequently used. If no response was observed, then a hair with force immediately higher was tested. The lowest amount of force required to induce reliable responses (positive in 2 out of 3 trials) was recorded as the value of PWT. Only animals showing significant mechanical allodynia (PWT≤3.5 g) were selected for subsequent electrophysiological experiments (see FIG. 5).
(§5) Once validation of a neuropathic state had been confirmed, animals were terminally anesthetized using isoflurane (Norvartis Animal Health UK Ltd.), cervically dislocated and decapitated. A laminectomy was performed and the spinal cord, with spinal roots and DRG attached, removed and cut into 250-450 μm thick slices using a Leica VT1000S vibrating microtome (Leica Microsystems UK, Milton Keynes, United Kingdom). Slices were maintained in artificial cerebrospinal fluid (aCSF) at room temperature for 1 hr after slicing before recording. For recording, individual slices were held between two grids in a custom-built chamber continuously perfused with aCSF at a rate of 4-10 ml.min^−1, illuminated from below, and viewed under a dissection microscope. […]

[2] = system: dorsal horn neurons; assay: whole-cell recording of dorsal horn neurons in spinal cord slices from Chung models (Example 4); format: cell-based, rat; conditions: 1 μM
Experimental: as §1, with “(aged/weeks” for “(aged 7 weeks”, “U.K.” for “U. K.”
as §2, with “They” for “Animals”, “day after” for “day-after”, “drug” for “drag”
as §3
LAT9993 LoopS (SEQ ID NO:28), SEQ11+LAT9993 Loop (SEQ ID NO:32; […]), SEQ25+LAT9993 Loop (SEQ ID NO:33; […]), LAT9993 SLoop A4 (SEQ ID NO:30), LAT9993 SLoop A7 (SEQ ID NO:31), LAT9993 SLoop A9 (SEQ ID NO:34; SCRSRPVEASC) and LAT9993 SLoop A10 (SEQ ID NO:35; SCRSRPVESAC), were solubilised in distilled water and made up as concentrated stocks and stored frozen until the day of experiment when they were diluted to the required test concentrations in artificial cerebrospinal fluid (aCSF), as described in Example 3, above.
as §4
as §5, with “microscope. The aCSF was of the following composition (mM): NaCl, 127; KCl, 1.9; KH2PO4, 1.2; CaCl2, 2.4; MgCl2, 1.3; NaHCO3, 26; D-glucose, 10; equilibrated with 95% O2-5% CO2.” for “microscope.”

In the case of “CRSRPVESSCS (disulfide 1-10 (inferred); listed as Homo sapiens) [LAT9993 LoopS, cyclic peptide of formula (I), disulphide bond between the two cysteine residues]”, the “dorsal root afferent-mediated EPSPs” value [1] is reported as “suppression of dorsal root afferent-mediated EPSPs, in one neurone selectively”, the “Input Resistance, mean in presence of peptide” value (“Input Resistance, mean” below) [1] is reported as 788±191.9 MΩ and 788.0 MΩ and the “Membrane Potential, mean in presence of peptide” value (“Membrane Potential, mean” below) [1] is reported as −50.6±1.8 mV and −50.6 mV. For the same sequence, the “Normalised Input Resistance” value [1] was 95.6, the “Normalised Input Resistance ΔIR” value [1] was 4.4 and the “effect on membrane potential and activity of dorsal horn neurons” value (from here on “effect”) [1] was “membrane hyperpolarisation and inhibition of activity in 3 neurons; also recorded: little effect on a further 2 dorsal horn neurons; also recorded: principally induced inhibition of dorsal horn neurons or was without significant effect”. The “dorsal root afferent-mediated EPSPs” value ([1]; listed as LAT999 LoopS) was “suppressed dorsal root-evoked excitatory posts-synaptic potentials (EPSPs) in two neurons”, the “dorsal root afferent-mediated EPSPs” value ([1]; listed as LAT9993S) was “suppression of EPSPs; also recorded: selectively suppressed” and the “Normalised Membrane Potential” value [1] was 109.2. For the same sequence, the “Normalised Membrane Potential ΔVm” value [1] was −9.2, the “reversal potential of induced response (VI plots intersect)” value ([1]; single cells) was “around −55 mV” and the “ΔIR, change in neuronal input resistance” value [1] was 22.1±24.2 MΩ and 22.1 MΩ. The “ΔVm, change in membrane potential” value [1] was 3.8±2 mV and 3.8 mV, the “dorsal root afferent-mediated EPSPs / synaptic inputs (words)” value [2] was “either slightly suppressed dorsal root-evoked excitatory post-synaptic potentials (EPSPs) or had little effect; also recorded: little effect” and the “Input Resistance, mean” value ([2]; all cells) was 502.6±104.1 MΩ and 502.6 MΩ. The “Membrane Potential, mean” value ([2]; all cells) was −44.7±4.3 mV and −44.7 mV, the “Normalised Input Resistance” value ([2]; control = 100) was 92.8 and the “Normalised Input Resistance ΔIR” value ([2]; control = 100) was 7.2. The “effect” value ([2]; ipsilateral to injury) was “membrane hyperpolarisation and inhibition of activity in 1 neurone; also recorded: membrane depolarisation in the other two neurons; also recorded: small excitation of dorsal horn”, the “dorsal root afferent-mediated EPSPs / synaptic inputs (words)” value ([2]; listed as LAT9993 Loop S) was “little effect” and the “Normalised Membrane Potential” value ([2]; rest = 100) was 91.5. The “Normalised Membrane Potential ΔVm” value ([2]; rest = 100) was 8.5, the “reversal potential of induced response (VI plots intersect)” value ([2]; single cells) was “around −85 mV” and the “ΔIR, change in neuronal input resistance” value ([2]; vs control, in table positive = reduction, negative = increase) was 28.7±34.9 MΩ and 28.7 MΩ.
“CRSRPVESSC (disulfide 1-10 (inferred); listed as Homo sapiens) [LAT9993 Loop, cyclic peptide of formula (I), disulphide bond between the two cysteine residues]” was tested, and the “dorsal root afferent-mediated EPSPs” value [1] was “suppression; also recorded: suppressed dorsal root afferent mediated excitatory synaptic transmission”, the “evoked inhibitory post-synaptic potentials” value [1] was “little effect” and the “Input Resistance, mean” value [1] was 566.3±82.0 MΩ and 566.3 MΩ. For the same sequence, the “Membrane Potential, mean” value [1] was −51.9±3.9 mV and −51.9 mV, the “Normalised Input Resistance” value [1] was 92.4 and the “Normalised Input Resistance ΔIR” value [1] was 7.6. For the same sequence, the “effect” value [1] was “marked membrane hyperpolarisation and inhibition of activity in 4 neurons; also recorded: little effect on a further 2 dorsal horn neurons”, the “Normalised Membrane Potential” value [1] was 107.2 and the “Normalised Membrane Potential ΔVm” value [1] was −7.2. For the same sequence, the “ΔIR, change in neuronal input resistance” value [1] was 51.6±75.3 MΩ and 51.6 MΩ and the “ΔVm, change in membrane potential” value [1] was 3.5±1.1 mV and 3.5 mV.
